Experimental data from patent US20240165244A1 (Prelude Therapeutics Incorporated, priority 2022, published 2024).

Experiments:
SMARCA4 = target: T1, SMARCA4 (Homo sapiens, UniProt P51532); experiment: SMARCA4 HiBiT degradation assay in HeLa cells; type: cell-based; details: 18 hours, highest concentration 10 μM
T1 construct: SMARCA4-HiBiT knock-in Hela monoclonal cell (CS3023226); host or cells: HeLa monoclonal cells with heterozygous HiBiT knock-in at the endogenous SMARCA4 locus
Outline: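 HeLa monoclonal cells with HiBiT knocked into SMARCA4 were seeded at 2500 cells/well, dosed with compound and incubated 18 hours at 37° C. HiBiT signal reported remaining SMARCA4 protein, and values came from curve fitting.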

SMARCA2 = target: T2, SMARCA2 (Homo sapiens, UniProt P51531); experiment: SMARCA2 HiBiT degradation assay in HeLa cells; type: cell-based; details: 18 hours, highest concentration 10 μM
T2 construct: SMARCA2-HiBiT knock-in Hela monoclonal cell (CS302366); host or cells: HeLa monoclonal cells with heterozygous HiBiT knock-in at the endogenous SMARCA2 locus
T2 sequence (P51531 whole entry): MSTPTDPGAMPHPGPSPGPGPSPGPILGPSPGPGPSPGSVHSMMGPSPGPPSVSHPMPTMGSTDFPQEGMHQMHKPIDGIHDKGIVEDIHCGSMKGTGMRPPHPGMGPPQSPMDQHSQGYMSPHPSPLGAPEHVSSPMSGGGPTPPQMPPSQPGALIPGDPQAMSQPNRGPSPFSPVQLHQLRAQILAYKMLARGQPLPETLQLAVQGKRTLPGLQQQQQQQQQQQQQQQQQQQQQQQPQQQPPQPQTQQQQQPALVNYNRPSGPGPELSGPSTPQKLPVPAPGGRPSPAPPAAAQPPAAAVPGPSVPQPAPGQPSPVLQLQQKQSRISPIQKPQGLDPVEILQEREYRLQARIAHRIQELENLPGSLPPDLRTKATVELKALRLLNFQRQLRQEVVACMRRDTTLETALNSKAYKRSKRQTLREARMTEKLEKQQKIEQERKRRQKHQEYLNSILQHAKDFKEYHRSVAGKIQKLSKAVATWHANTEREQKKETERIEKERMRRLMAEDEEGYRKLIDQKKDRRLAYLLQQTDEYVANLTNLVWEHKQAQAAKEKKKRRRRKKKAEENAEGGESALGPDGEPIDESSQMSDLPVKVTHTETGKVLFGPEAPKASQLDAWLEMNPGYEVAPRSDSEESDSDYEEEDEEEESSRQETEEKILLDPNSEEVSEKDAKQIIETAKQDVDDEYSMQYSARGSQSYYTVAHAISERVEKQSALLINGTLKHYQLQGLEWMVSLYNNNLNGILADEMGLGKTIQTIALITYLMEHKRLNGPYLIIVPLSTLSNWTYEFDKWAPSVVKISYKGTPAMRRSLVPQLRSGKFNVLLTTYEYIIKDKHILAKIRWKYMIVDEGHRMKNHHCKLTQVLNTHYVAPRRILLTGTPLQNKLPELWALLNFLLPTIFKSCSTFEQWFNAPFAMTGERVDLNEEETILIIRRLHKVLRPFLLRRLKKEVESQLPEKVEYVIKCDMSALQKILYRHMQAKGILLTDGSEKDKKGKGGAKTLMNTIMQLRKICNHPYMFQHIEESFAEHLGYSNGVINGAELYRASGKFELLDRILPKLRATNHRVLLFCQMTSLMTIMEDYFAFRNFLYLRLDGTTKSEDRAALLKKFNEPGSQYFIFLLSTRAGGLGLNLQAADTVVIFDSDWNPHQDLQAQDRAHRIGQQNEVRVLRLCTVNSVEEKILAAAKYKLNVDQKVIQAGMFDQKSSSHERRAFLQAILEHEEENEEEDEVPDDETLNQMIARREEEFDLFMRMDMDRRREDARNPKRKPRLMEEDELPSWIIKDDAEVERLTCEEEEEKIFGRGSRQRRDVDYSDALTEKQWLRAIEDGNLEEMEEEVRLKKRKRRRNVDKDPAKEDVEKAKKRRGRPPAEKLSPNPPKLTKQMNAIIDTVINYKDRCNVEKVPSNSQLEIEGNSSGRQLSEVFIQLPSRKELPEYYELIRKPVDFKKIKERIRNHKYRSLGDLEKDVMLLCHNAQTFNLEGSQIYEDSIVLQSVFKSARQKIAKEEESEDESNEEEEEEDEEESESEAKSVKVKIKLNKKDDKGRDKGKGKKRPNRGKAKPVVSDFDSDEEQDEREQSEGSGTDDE
Outline: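 HeLa cells carrying a heterozygous C-terminal HiBiT knock-in on SMARCA2 were seeded at 2500 cells/well. They were treated with 3-fold dilution series, top concentration 10 μM, for 18 h at 37 °C. Remaining SMARCA2-HiBiT was measured by Nano-Glo HiBiT lytic luminescence after 30-60 min at RT, followed by curve fitting.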

T1 sequence (P51532 whole entry): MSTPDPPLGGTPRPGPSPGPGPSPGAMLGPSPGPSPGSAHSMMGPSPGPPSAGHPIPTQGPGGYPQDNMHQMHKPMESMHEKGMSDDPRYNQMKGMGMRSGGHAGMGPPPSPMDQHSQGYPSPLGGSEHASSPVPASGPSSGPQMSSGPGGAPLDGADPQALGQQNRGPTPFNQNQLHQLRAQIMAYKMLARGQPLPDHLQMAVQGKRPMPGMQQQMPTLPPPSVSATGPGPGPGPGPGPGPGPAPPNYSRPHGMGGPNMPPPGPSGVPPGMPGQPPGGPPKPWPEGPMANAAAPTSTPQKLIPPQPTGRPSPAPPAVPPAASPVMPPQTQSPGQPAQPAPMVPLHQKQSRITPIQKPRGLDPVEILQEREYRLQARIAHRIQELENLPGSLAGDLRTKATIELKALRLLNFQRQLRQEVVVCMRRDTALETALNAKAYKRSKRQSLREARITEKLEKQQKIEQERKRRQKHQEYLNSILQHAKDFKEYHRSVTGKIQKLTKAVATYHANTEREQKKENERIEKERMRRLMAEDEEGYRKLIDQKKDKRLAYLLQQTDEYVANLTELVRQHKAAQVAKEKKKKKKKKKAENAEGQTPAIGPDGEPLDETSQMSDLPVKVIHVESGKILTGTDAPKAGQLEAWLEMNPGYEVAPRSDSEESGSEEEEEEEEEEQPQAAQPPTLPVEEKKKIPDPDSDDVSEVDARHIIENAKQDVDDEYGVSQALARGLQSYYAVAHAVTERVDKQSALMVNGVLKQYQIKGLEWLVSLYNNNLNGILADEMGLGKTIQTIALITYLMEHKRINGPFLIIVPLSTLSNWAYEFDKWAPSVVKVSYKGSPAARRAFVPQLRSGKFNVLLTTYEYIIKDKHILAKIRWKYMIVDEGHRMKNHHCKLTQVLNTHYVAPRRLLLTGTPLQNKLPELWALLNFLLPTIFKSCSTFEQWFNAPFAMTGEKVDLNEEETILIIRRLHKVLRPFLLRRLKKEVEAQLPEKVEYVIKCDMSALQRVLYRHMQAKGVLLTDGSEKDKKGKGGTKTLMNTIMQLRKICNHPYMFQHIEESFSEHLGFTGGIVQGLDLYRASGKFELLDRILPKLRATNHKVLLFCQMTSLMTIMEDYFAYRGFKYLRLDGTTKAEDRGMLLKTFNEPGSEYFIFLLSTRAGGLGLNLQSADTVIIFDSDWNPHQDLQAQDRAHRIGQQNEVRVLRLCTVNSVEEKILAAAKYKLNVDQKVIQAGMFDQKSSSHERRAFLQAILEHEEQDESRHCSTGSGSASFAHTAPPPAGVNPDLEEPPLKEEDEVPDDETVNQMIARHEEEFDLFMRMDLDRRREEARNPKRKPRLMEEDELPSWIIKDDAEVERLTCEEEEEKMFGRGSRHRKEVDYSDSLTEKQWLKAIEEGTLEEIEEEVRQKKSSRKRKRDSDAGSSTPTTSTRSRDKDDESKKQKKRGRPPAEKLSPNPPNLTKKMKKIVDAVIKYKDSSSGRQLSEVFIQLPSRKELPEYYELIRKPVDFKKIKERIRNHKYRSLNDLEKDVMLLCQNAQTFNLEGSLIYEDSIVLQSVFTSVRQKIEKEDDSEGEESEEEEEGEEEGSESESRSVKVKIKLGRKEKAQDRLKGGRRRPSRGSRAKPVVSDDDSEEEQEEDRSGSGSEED

DC50 (SMARCA4) [nM]	Dmax (SMARCA4) [%]	DC50 (SMARCA2) [nM]	Dmax (SMARCA2) [%]	SMILES
< 100	50 to 75	< 100	> 75	Cc1cc(O[C@H]2CN3c4cc(-c5cccc(F)c5O)nnc4NC[C@]3(C)C2)c(C)nc1CN1CCN(c2ccc3c(c2)C(=O)N([C@H]2CCC(=O)NC2=O)C3)CC1 [Example 80, (S)-3-(6-(4-((5-(((6aS,8R)-2-(3-fluoro-2-hydroxyphenyl)-6a-methyl-5,6,6a,7,8,9-hexahydropyrrolo[1′,2′:4,5]pyrazino[2,3-c]pyridazin-8-yl)oxy)-3,6-dimethylpyridin-2-yl)methyl)piperazin-1-yl)-1-oxoisoindolin-2-yl)piperidine-2,6-dione]
100 to 1000	< 50	< 100	> 75	Cc1cc(O[C@H]2CN3c4cc(-c5cccc(F)c5O)nnc4NC[C@@]3(C)C2)cnc1CN1CCN(c2ccc3c(c2)C(=O)N([C@H]2CCC(=O)NC2=O)C3)CC1 [Example 81, (S)-3-(6-(4-((5-(((6aR,8R)-2-(3-fluoro-2-hydroxyphenyl)-6a-methyl-5,6,6a,7,8,9-hexahydropyrrolo[1′,2′:4,5]pyrazino[2,3-c]pyridazin-8-yl)oxy)-3-methylpyridin-2-yl)methyl)piperazin-1-yl)-1-oxoisoindolin-2-yl)piperidine-2,6-dione]
< 100	50 to 75	< 100	> 75	Cc1cc(O[C@H]2CN3c4cc(-c5cccc(F)c5O)nnc4NC[C@]3(C)C2)cnc1CN1CCN(c2ccc3c(c2)C(=O)N([C@H]2CCC(=O)NC2=O)C3)CC1 [Example 82, (S)-3-(6-(4-((5-(((6aS,8R)-2-(3-fluoro-2-hydroxyphenyl)-6a-methyl-5,6,6a,7,8,9-hexahydropyrrolo[1′,2′:4,5]pyrazino[2,3-c]pyridazin-8-yl)oxy)-3-methylpyridin-2-yl)methyl)piperazin-1-yl)-1-oxoisoindolin-2-yl)piperidine-2,6-dione]
< 100	> 75	< 100	> 75	Cc1cc(CN2CCN(c3ccc4c(c3)C(=O)N([C@H]3CCC(=O)NC3=O)C4)CC2)cnc1O[C@H]1CN2c3cc(-c4cccc(F)c4O)nnc3NC[C@]2(C)C1 [Example 83, (S)-3-(6-(4-((6-(((6aS,8R)-2-(3-fluoro-2-hydroxyphenyl)-6a-methyl-5,6,6a,7,8,9-hexahydropyrrolo[1′,2′:4,5]pyrazino[2,3-c]pyridazin-8-yl)oxy)-5-methylpyridin-3-yl)methyl)piperazin-1-yl)-1-oxoisoindolin-2-yl)piperidine-2,6-dione]
100 to 1000	< 50	< 100	> 75	O=C1CCC(N2Cc3ccc(N4CCN(Cc5cnc(O[C@H]6CN7c8cc(-c9cccc(F)c9O)nnc8NC[C@@]7(C(F)F)C6)c(F)c5)CC4)cc3C2=O)C(=O)N1 (stereo partly drawn) [Example 84, 3-(6-(4-((6-(((6aR,8R)-6a-(difluoromethyl)-2-(3-fluoro-2-hydroxyphenyl)-5,6,6a,7,8,9-hexahydropyrrolo[1′,2′:4,5]pyrazino[2,3-c]pyridazin-8-yl)oxy)-5-fluoropyridin-3-yl)methyl)piperazin-1-yl)-1-oxoisoindolin-2-yl)piperidine-2,6-dione]
< 100	50 to 75	< 100	> 75	O=C1CCC(N2Cc3ccc(N4CCN(Cc5cnc(O[C@H]6CN7c8cc(-c9cccc(F)c9O)nnc8NC[C@@]7(C(F)F)C6)c(Cl)c5)CC4)cc3C2=O)C(=O)N1 (stereo partly drawn) [Example 85, 3-(6-(4-((5-chloro-6-(((6aR,8R)-6a-(difluoromethyl)-2-(3-fluoro-2-hydroxyphenyl)-5,6,6a,7,8,9-hexahydropyrrolo[1′,2′:4,5]pyrazino[2,3-c]pyridazin-8-yl)oxy)pyridin-3-yl)methyl)piperazin-1-yl)-1-oxoisoindolin-2-yl)piperidine-2,6-dione]
100 to 1000	< 50	< 100	> 75	Cc1c(CN2CCN(c3ccc4c(c3)C(=O)N([C@H]3CCC(=O)NC3=O)C4)CC2)cnc(O[C@H]2CN3c4cc(-c5cccc(F)c5O)nnc4NC[C@@]3(C(F)F)C2)c1C [Example 86, (S)-3-(6-(4-((6-(((6aR,8R)-6a-(difluoromethyl)-2-(3-fluoro-2-hydroxyphenyl)-5,6,6a,7,8,9-hexahydropyrrolo[1′,2′:4,5]pyrazino[2,3-c]pyridazin-8-yl)oxy)-4,5-dimethylpyridin-3-yl)methyl)piperazin-1-yl)-1-oxoisoindolin-2-yl)piperidine-2,6-dione]
100 to 1000	< 50	< 100	> 75	Cc1cc(CN2CCN(c3ccc4c(c3)C(=O)N([C@H]3CCC(=O)NC3=O)C4)CC2)c(C)nc1O[C@H]1CN2c3cc(-c4cccc(F)c4O)nnc3NC[C@@]2(C(F)F)C1 [Example 87, (S)-3-(6-(4-((6-(((6aR,8R)-6a-(difluoromethyl)-2-(3-fluoro-2-hydroxyphenyl)-5,6,6a,7,8,9-hexahydropyrrolo[1′,2′:4,5]pyrazino[2,3-c]pyridazin-8-yl)oxy)-2,5-dimethylpyridin-3-yl)methyl)piperazin-1-yl)-1-oxoisoindolin-2-yl)piperidine-2,6-dione]
100 to 1000	< 50	< 100	> 75	O=C1CCC(N2Cc3ccc(C4CCN(Cc5cnc(O[C@H]6CN7c8cc(-c9cccc(F)c9O)nnc8NC[C@@]7(C(F)F)C6)c(F)c5)CC4)cc3C2=O)C(=O)N1 (stereo partly drawn) [Example 88, 3-(6-(1-((6-(((6aR,8R)-6a-(difluoromethyl)-2-(3-fluoro-2-hydroxyphenyl)-5,6,6a,7,8,9-hexahydropyrrolo[1′,2′:4,5]pyrazino[2,3-c]pyridazin-8-yl)oxy)-5-fluoropyridin-3-yl)methyl)piperidin-4-yl)-1-oxoisoindolin-2-yl)piperidine-2,6-dione]
< 100	> 75	< 100	> 75	Cc1c(CN2CCC(c3ccc4c(c3)C(=O)N([C@H]3CCC(=O)NC3=O)C4)CC2)cnc(O[C@H]2CN3c4cc(-c5cccc(F)c5O)nnc4NC[C@]3(C(F)F)C2)c1F [Example 89, (S)-3-(6-(1-((6-(((6aS,8R)-6a-(difluoromethyl)-2-(3-fluoro-2-hydroxyphenyl)-5,6,6a,7,8,9-hexahydropyrrolo[1′,2′:4,5]pyrazino[2,3-c]pyridazine-8-yl)oxy)-5-fluoro-4-methylpyridin-3-yl)methyl)piperidin-4-yl)-1-oxoisoindolin-2-yl)piperidine-2,6-dione]
> 1000	< 50	< 100	> 75	O=C1CC[C@H](N2Cc3ccc(C4CCN(Cc5ccc(O[C@H]6CN7c8cc(-c9cccc(F)c9O)nnc8NC[C@@]7(C(F)F)C6)nc5)CC4)cc3C2=O)C(=O)N1 [Example 90, (S)-3-(6-(1-((6-(((6aR,8R)-6a-(difluoromethyl)-2-(3-fluoro-2-hydroxyphenyl)-5,6,6a,7,8,9-hexahydropyrrolo[1′,2′:4,5]pyrazino[2,3-c]pyridazin-8-yl)oxy)pyridin-3-yl)methyl)piperidin-4-yl)-1-oxoisoindolin-2-yl)piperidine-2,6-dione]
